Laboratory results published in patent US20040110769A1, “Farnesyl protein transferase inhibitor combinations with antiestrogen agents” (priority 2003, published 2004).
Where “and” joins values, the source holds several entries; their conditions need not be identical. Identical values can stand only once.

Tested on: MCF7 human breast carcinoma cells
Experiment: Anti-tumor activity in established MCF-7 human breast tumor xenografts in nude mice
Type: in vivo
Conditions: MCF-7 xenograft in female nude mice, individual animals showing regression
Procedure: A combination of a farnesyl transferase inhibitor, namely the compound identified as Compound 75 above (R115777), and an anti-estrogen agent, namely tamoxifen (TMX), was tested for anti-tumor activity in comparison with the activity of the individual components of the combination, as described below.
Female Nude-Homo NCRNU non-ovarectimized mice 8 weeks of age were fed ad libitum water and an irradiated standard rodent diet. Mice were housed in stable microisolators on a 12 hour light cycle at 21-22° C. and 40-60% humidity.
Mice were inoculated subcutaneously with 1×10^7 MCF7 human breast carcinoma cells in the flank. Tumors were monitored initially twice a week and then daily as neoplasms reached the desired size, approximately 100 mg. When the carcinomas reached a size between 62-144 mg in calculated tumor weight, the animals were pair matched into the various treatment groups (group mean tumor weights ranged from 83-85 mg).
Estimated tumor weight was calculated using the formula: [formula] […]
The tumor growth inhibition (TGI) endpoint was used in this study to assess the efficacy of the various treatments. The tumor burden endpoint was set at 1.0 g as measured by calliper. TGI values were determined on the last day of the study (Day 5), when all mice were under test, except those that had expired from treatment-related or procedural causes. […]

Compound | Regression in Individual Animals (magnitude of tumor regression expressed as % reduction from pretreatment tumor size) (R115777 100 mg/kg, orally qd to end) | Regression in Individual Animals (magnitude of tumor regression expressed as % reduction from pretreatment tumor size) (TMX 1 mg/kg, s.c.)
Cn1cncc1C(N)(c1ccc(Cl)cc1)c1ccc2c(c1)c(-c1cccc(Cl)c1)cc(=O)n2C (single isomer, unassigned; (+)) [Compound R115777, (+)-6-[amino(4-chlorophenyl)(1-methyl-1H-imidazol-5-yl)methyl]-4-(3-chlorophenyl)-1-methyl-2(1H)-quinolinone] | 93% and 100% | –
CC/C(=C(\c1ccccc1)c1ccc(OCCN(C)C)cc1)c1ccccc1 [TMX, tamoxifen] | – | 10% and 78% and 94% and 44% and 59% and 31%
